From ChEMBL document CHEMBL1154495, “1,5-Benzothiazepine, a versatile pharmacophore: a review” (Eur J Med Chem, 2008)

Tested on: Human immunodeficiency virus 1
Experiment: Antiviral activity against HIV1 infected in human MT4 cells assessed as inhibition of virus-induced cytopathicity
Assay type: functional, organism-based
Settings: Human immunodeficiency virus 1, MT4

EC50: 300 nM
SMILES: CC(C)=CCn1cc2c(c1)S(=O)(=O)c1cc(Cl)ccc1NC2=O
